Target: T1, Kit (Homo sapiens, UniProt P10721)
T1 construct: P1332.N6 BI PTP KIT M552-K948-X COD; made in house; host or cells: E. coli BL21(DE3)RIL, co-expressed with PTP1B
Assay: c-kit biochemical assay (AlphaScreen or 33P-ATP)
Settings: under the test conditions employed; read-out: IC50 toward kinase Kit
Description: C-kit kinase was at 1 ng per sample.
The c-kit enzyme used in the above assay was either obtained from Cell Signaling Technology (Cat. #7754) or was prepared as follows: A plasmid encoding kit (DNA and encoded protein sequences shown below) was engineered using common polymerase chain reaction (PCR) methods. Complementary DNA cloned from various human tissues were purchased from Invitrogen, and these were used as substrates in the PCR reactions. Specific custom synthetic oligonucleotide primers were designed to initiate the PCR product, and also to provide the appropriate restriction enzyme cleavage sites for ligation with the plasmids. The entire sequence encoding the enzyme was made through a gene synthesis procedure, using custom synthetic oligonucleotides covering the entire coding sequence (Invitrogen, see below).

T1 sequence (P10721 552-948): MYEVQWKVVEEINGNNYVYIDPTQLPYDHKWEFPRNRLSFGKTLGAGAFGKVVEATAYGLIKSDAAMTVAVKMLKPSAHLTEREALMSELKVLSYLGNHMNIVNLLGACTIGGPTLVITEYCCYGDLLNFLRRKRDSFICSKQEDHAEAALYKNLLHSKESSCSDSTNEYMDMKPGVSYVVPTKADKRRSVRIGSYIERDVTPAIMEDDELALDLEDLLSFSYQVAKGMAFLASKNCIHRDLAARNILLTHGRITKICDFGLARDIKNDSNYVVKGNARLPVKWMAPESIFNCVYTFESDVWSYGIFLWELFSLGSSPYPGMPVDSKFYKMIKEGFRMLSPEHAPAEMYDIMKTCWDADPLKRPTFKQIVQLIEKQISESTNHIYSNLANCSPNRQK

IC50, ≤ 10 µM:
CCOc1c(OCc2ccc(Cl)cc2Cl)cccc1C(=O)c1c[nH]c2ncccc12 [P-2130, [3-(2,4-Dichloro-benzyloxy)-2-ethoxy-phenyl]-(1-pyrrolo[2,3-b]pyridin-3-yl)-methanone]
Fc1ccc(OCC(F)(F)F)c(Cl)c1Cc1c[nH]c2ncccc12 [P-2148, 3-[2-Chloro-6-fluoro-3-(2,2,2-trifluoro-ethoxy)-benzyl]-1H-pyrrolo[2,3-b]pyridine]
CCOc1c(OCc2c(F)cc(F)cc2F)cccc1C(=O)c1c[nH]c2ncccc12 [P-2137, [2-Ethoxy-3-(2,4,6-trifluoro-benzyloxy)-phenyl]-(1H-pyrrolo[2,3-b]pyridin-3-yl)-methanone]
O=C(c1cccc(OCc2ccc(Cl)cc2F)c1OCC1CC1)c1c[nH]c2ncccc12 [P-2120]
O=C(c1cccc(OCc2ccc(Cl)cc2F)c1OCC(F)(F)F)c1c[nH]c2ncccc12 [P-2139, [3-(4-Chloro-2-fluoro-benzyloxy)-2-(2,2,2-trifluoro-ethoxy)-phenyl]-(1H-pyrrolo[2,3-b]pyridin-3-yl)-methanone]

Target: T2, TrkA (Homo sapiens, UniProt P04629)
T2 construct: purchased Upstate Biotech 14-571
Assay: TrkA biochemical assay (AlphaScreen)
Settings: under the test conditions employed; read-out: IC50 toward kinase TrkA
Description: Compounds tested were dissolved in DMSO (1 μL) and added to a white 384-well plate (Costar #3705). […] Each sample was at 5% DMSO. The plate was then incubated for 40 minutes at room temperature.

T2 sequence (P04629 33-796): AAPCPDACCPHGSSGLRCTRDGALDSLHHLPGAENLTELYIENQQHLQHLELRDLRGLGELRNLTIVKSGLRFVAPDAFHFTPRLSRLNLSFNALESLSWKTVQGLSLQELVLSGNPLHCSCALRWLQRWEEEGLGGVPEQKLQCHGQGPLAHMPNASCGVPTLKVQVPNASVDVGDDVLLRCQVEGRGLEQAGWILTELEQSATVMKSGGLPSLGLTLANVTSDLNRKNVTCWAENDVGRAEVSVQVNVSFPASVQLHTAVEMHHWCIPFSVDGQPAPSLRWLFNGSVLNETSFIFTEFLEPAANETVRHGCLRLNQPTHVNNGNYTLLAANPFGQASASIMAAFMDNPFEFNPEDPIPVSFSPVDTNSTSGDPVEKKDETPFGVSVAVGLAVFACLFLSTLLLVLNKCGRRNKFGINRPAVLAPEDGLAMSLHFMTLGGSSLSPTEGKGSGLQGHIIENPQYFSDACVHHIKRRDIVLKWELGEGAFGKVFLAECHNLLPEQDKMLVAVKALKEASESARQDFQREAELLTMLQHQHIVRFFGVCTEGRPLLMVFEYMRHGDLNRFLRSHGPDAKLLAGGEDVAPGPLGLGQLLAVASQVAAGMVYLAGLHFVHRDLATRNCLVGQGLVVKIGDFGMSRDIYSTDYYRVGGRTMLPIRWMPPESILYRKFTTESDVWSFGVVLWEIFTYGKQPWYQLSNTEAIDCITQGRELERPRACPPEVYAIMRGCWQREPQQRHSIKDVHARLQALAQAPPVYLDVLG

IC50, ≤ 10 µM:
COc1cc(Cc2c[nH]c3ncccc23)c(F)cc1OCc1ccc(Cl)cc1 [P-1844, 3-[4-(4-Chloro-benzyloxy)-2-fluoro-5-methoxy-benzyl]-1H-pyrrolo[2,3-b]pyridine]
COc1cc(Cc2c[nH]c3ncc(Cl)cc23)c(F)cc1OCc1nc2ccccc2[nH]1 [P-1976, 2-[4-(5-Chloro-1H-pyrrolo[2,3-b]pyridin-3-ylmethyl)-5-fluoro-2-methoxy-phenoxymethyl]-1H-benzoimidazole]
COc1cc(Cc2c[nH]c3ncccc23)c(F)cc1OCc1nc2ccccc2[nH]1 [P-1978, 2-[5-Fluoro-2-methoxy-4-(1H-pyrrolo[2,3-b]pyridin-3-ylmethyl)-phenoxymethyl]-1H-benzoimidazole]

Target: T3, Fms (Homo sapiens, UniProt P07333)
T3 construct: purchased Upstate Biotech 14-551
Assay: Fms biochemical assay (AlphaScreen or 33P-ATP)
Settings: under the test conditions employed; read-out: IC50 toward kinase Fms
From the text: Each sample was at 5% DMSO.

T3 sequence (P07333 20-972): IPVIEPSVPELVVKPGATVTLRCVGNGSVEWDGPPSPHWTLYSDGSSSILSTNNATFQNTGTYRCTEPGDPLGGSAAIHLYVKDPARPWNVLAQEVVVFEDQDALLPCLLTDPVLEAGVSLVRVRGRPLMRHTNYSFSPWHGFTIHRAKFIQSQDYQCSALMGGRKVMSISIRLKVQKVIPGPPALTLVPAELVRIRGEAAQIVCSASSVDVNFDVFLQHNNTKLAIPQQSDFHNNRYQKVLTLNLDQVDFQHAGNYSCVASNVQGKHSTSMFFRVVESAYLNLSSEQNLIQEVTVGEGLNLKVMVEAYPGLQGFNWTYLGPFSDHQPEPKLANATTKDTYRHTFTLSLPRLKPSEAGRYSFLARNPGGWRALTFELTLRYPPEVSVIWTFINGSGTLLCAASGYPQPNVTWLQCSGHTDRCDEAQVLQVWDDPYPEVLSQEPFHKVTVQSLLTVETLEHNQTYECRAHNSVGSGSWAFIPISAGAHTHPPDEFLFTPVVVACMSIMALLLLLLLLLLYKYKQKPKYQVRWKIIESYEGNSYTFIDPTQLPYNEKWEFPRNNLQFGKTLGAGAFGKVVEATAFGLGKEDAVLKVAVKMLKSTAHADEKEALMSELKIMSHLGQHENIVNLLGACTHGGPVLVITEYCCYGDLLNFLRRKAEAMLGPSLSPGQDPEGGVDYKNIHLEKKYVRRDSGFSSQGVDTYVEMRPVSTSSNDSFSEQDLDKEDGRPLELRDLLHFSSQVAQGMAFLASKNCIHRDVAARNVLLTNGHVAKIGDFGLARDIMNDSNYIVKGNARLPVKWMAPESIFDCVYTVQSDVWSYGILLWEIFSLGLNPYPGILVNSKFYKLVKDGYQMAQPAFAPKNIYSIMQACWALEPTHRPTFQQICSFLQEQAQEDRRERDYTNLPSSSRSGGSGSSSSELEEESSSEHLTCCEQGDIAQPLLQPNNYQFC

IC50, ≤ 10 µM:
CCOc1c(OCCCN2CCOCC2)cccc1C(=O)c1c[nH]c2ncccc12 [P-2126, [2-Ethoxy-3-(3-morpholin-4-yl-propoxy)-phenyl]-(1H-pyrrolo[2,3-b]pyridin-3-yl)-methanone]
CCOc1c(OCc2ccc(Cl)cc2Cl)cccc1C(=O)c1c[nH]c2ncccc12 [P-2130, [3-(2,4-Dichloro-benzyloxy)-2-ethoxy-phenyl]-(1-pyrrolo[2,3-b]pyridin-3-yl)-methanone]
O=C(c1cccc(OCc2ccc(Cl)cc2F)c1OCC(F)F)c1c[nH]c2ncccc12 [P-2119, [3-(4-Chloro-2-fluoro-benzyloxy)-2-(2,2-difluoro-ethoxy)-phenyl]-(1H-pyrrolo[2,3-b]pyridin-3-yl)-methanone]
Fc1ccc(OCC(F)(F)F)c(Cl)c1Cc1c[nH]c2ncccc12 [P-2148, 3-[2-Chloro-6-fluoro-3-(2,2,2-trifluoro-ethoxy)-benzyl]-1H-pyrrolo[2,3-b]pyridine]
CCOc1c(OCc2ccc(Cl)cc2F)cccc1C(=O)c1c[nH]c2ncccc12 [P-2123, [3-(4-Chloro-2-fluoro-benzyloxy)-2-ethoxy-phenyl]-(1H-pyrrolo[2,3-b]pyridin-3-yl)-methanone]
CCOc1c(OCc2cccc(C)n2)cccc1C(=O)c1c[nH]c2ncccc12 [P-2122, [2-Ethoxy-3-(6-methyl-pyridin-2-ylmethoxy)-phenyl]-(1H-pyrrolo[2,3-b]pyridin-3-yl)-methanone]
CCOc1c(OCc2cc(C)nn2C)cccc1C(=O)c1c[nH]c2ncccc12 [P-2125, [3-(2,5-Dimethyl-2H-pyrazol-3-ylmethoxy)-2-ethoxy-phenyl]-(1H-pyrrolo[2,3-b]pyridin-3-yl)-methanone]
O=C(c1cccc(OCc2c(F)cc(F)cc2F)c1OCC1CC1)c1c[nH]c2ncc(Cl)cc12 [P-2141, (5-Chloro-1H-pyrrolo[2,3-b]pyridin-3-yl)-[2-cyclopropylmethoxy-3-(2,4,6-trifluoro-benzyloxy)-phenyl]-methanone]
CCOc1c(OC(C)c2ccccc2F)cccc1C(=O)c1c[nH]c2ncccc12 (centres unmarked) [P-2133, {2-Ethoxy-3-[1-(2-fluoro-phenyl)-ethoxy]-phenyl}-(1H-pyrrolo[2,3-b]pyridin-3-yl)-methanone]
Fc1ccc(OCc2ccccc2)c(F)c1Cc1c[nH]c2ncccc12 [P-1803, 3-(3-Benzyloxy-2,6-difluoro-benzyl)-1H-pyrrolo[2,3-b]pyridine]
COc1cc(Cc2c[nH]c3ncccc23)ccc1OCc1ccc(CN2CCN(C)CC2)cc1 [P-1821, 3-{3-Methoxy-4-[4-(4-methyl-piperazin-1-ylmethyl)-benzyloxy]-benzyl}-1H-pyrrolo[2,3-b]pyridine]
CCOc1c(OCc2ccc(C(F)(F)F)nc2)cccc1C(=O)c1c[nH]c2ncccc12 [P-2129, [2-Ethoxy-3-(6-trifluoromethyl-pyridin-3-ylmethoxy)-phenyl]-(1H-pyrrolo[2,3-b]pyridin-3-yl)-methanone]
CCOc1c(OCc2sc(C)nc2C)cccc1C(=O)c1c[nH]c2ncccc12 [P-2124, [3-(2,4-Dimethyl-thiazol-5-ylmethoxy)-2-ethoxy-phenyl]-(1H-pyrrolo[2,3-b]pyridin-3-yl)-methanone]
CCOc1c(OC(C)c2ccncc2)cccc1C(=O)c1c[nH]c2ncccc12 (centres unmarked) [P-2135, [2-Ethoxy-3-(1-pyridin-4-yl-ethoxy)-phenyl]-(1H-pyrrolo[2,3-b]pyridin-3-yl)-methanone]
CCOc1c(OCc2cc(C)n(C)n2)cccc1C(=O)c1c[nH]c2ncccc12 [P-2134, [3-(1,5-Dimethyl-1H-pyrazol-3-ylmethoxy)-2-ethoxy-phenyl]-(1H-pyrrolo[2,3-b]pyridin-3-yl)-methanone]
CCOc1c(OCc2ccccc2F)cccc1C(=O)c1c[nH]c2ncccc12 [P-2127, [2-Ethoxy-3-(2-fluoro-benzyloxy)-phenyl]-(1H-pyrrolo[2,3-b]pyridin-3-yl)-methanone]
CCOc1c(OCc2ccc(F)cc2F)cccc1C(=O)c1c[nH]c2ncccc12 [P-2132, [3-(2,4-Difluoro-benzyloxy)-2-ethoxy-phenyl]-(1H-pyrrolo[2,3-b]pyridin-3-yl)-methanone]
O=C(c1cccc(OCc2ccc(Cl)cc2)c1OCCF)c1c[nH]c2ncccc12 [P-2118, [3-(4-Chloro-benzyloxy)-2-(2-fluoro-ethoxy)-phenyl]-(1H-pyrrolo[2,3-b]pyridin-3-yl)-methanone]
CCOc1c(OC(C)c2ccc(Cl)cc2Cl)cccc1C(=O)c1c[nH]c2ncccc12 (centres unmarked) [P-2138, {3-[1-(2,4-Dichloro-phenyl)-ethoxy]-2-ethoxy-phenyl}-(1H-pyrrolo[2,3-b]pyridin-3-yl)-methanone]
CCOc1c(OCc2c(F)cc(F)cc2F)cccc1C(=O)c1c[nH]c2ncccc12 [P-2137, [2-Ethoxy-3-(2,4,6-trifluoro-benzyloxy)-phenyl]-(1H-pyrrolo[2,3-b]pyridin-3-yl)-methanone]
CCOc1c(OCc2ccc(N3CCOCC3)nc2)cccc1C(=O)c1c[nH]c2ncccc12 [P-2128, [2-Ethoxy-3-(6-morpholin-4-yl-pyridin-3-ylmethoxy)-phenyl]-(1H-pyrrolo[2,3-b]pyridin-3-yl)-methanone]
CCOc1c(OCc2ccc(-n3ccnc3)cc2)cccc1C(=O)c1c[nH]c2ncccc12 [P-2131, [2-Ethoxy-3-(4-imidazol-1-yl-benzyloxy)-phenyl]-(1H-pyrrolo[2,3-b]pyridin-3-yl)-methanone]
O=C(c1cccc(OCc2ccc(Cl)cc2F)c1OCC1CC1)c1c[nH]c2ncccc12 [P-2120]
O=C(c1cccc(OCc2ccc(Cl)cc2F)c1OCC(F)(F)F)c1c[nH]c2ncccc12 [P-2139, [3-(4-Chloro-2-fluoro-benzyloxy)-2-(2,2,2-trifluoro-ethoxy)-phenyl]-(1H-pyrrolo[2,3-b]pyridin-3-yl)-methanone]

Source: patent US7872018B2, “Compounds and methods for kinase modulation, and indications therefor” (Plexxikon, Inc., priority 2006, dated 2011)
